Measurements as given in US10093611B2, “Benzocycloalkenes as antifungal agents” (Bayer Intellectual Property GmbH, priority 2010, dated 2018).

Tested on: Blumeria graminis fsp. hordei
Assay: In vivo preventive test on Blumeria graminis (barley)
Settings: 500 ppm of active ingredient, evaluated 7 days after inoculation
Description: EXAMPLE B: IN VIVO PREVENTIVE TEST ON BLUMERIA GRAMINIS (BARLEY) Solvent: 49 parts by weight of N,N-dimethylacetamide Emulsifier: 1 part by weight of alkylaryl polyglycol ether To produce a suitable preparation of active compound, 1 part by weight of active compound or active compound combination is mixed with the stated amounts of solvent and emulsifier, and the concentrate is diluted with water to the desired concentration. To test for preventive activity, young plants are sprayed with the preparation of active compound or active compound combination at the stated rate of application. After the spray coating has been dried, the plants are dusted with spores of Blumeria graminis fsp. hordei. The plants are placed in the greenhouse at a temperature of approximately 18° C. and a relative atmospheric humidity of approximately 80% to promote the development of mildew pustules. The test is evaluated 7 days after the inoculation. 0% means an efficacy which corresponds to that of the untreated control, while an efficacy of 100% means that no disease is observed. Under these conditions, total protection is observed at a dose of 500 ppm of active ingredient with the following compounds from table B: […]

Row | SMILES | Efficacy [%]
1 | Cc1nn(C)c(F)c1C(=O)N(C1CC1)C(C)C1Cc2ccccc2C1 (centres unmarked) [Example 11] | 100
2 | CCc1nn(C)c(F)c1C(=O)N(C1CC1)C(C)C1Cc2ccccc2C1 (centres unmarked) [Example 12] | 100
3 | CC(C1Cc2ccccc2C1)N(C(=O)c1cn(C)nc1C(F)F)C1CC1 (centres unmarked) [Example 13] | 100
4 | CC(C1Cc2ccccc2C1)N(C(=O)c1c(C(F)F)nn(C)c1F)C1CC1 (centres unmarked) [Example 14, N-cyclopropyl-3-(difluoromethyl)-N-[1-(indan-2-yl)ethyl]-5-fluoro-1-methyl-1H-pyrazole-4-carboxamide] | 100
5 | CC(C1CCc2ccccc2C1)N(C(=O)c1c(C(F)F)nn(C)c1F)C1CC1 (centres unmarked) [Example 16] | 100
